Assay results as given in ChEMBL document CHEMBL1154790, “Lorneic acids, trialkyl-substituted aromatic acids from a marine-derived actinomycete” (J Nat Prod, 2009).
The source made the active and inactive calls. No cut-off for these calls is given here.

How the values were obtained:
[1] = target: T1, cGMP-specific 3',5'-cyclic phosphodiesterase (Homo sapiens, UniProt O76074); experiment: Inhibition of human platelet PDE5 assessed as [3H]cGMP to [3H]GMP conversion pretreated 15 mins before substrate addition measured after 20 mins
[2] = target: T1, cGMP-specific 3',5'-cyclic phosphodiesterase; experiment: Inhibition of human platelet PDE5 assessed as [3H]cGMP to [3H]GMP conversion at 10 uM pretreated 15 mins before substrate addition measured after 20 mins

Compound | IC50 [1] [µM] | inhibition [2]
CCCC/C=C/c1cc(C)ccc1/C=C/CC(=O)O [LORNEIC ACID A] | 12.6 | Active
CCCCCC(O)c1cc(C)ccc1/C=C/CC(=O)O (stereo not drawn) [LORNEIC ACID B] | 87.1 | –
